Measured values published in ChEMBL document CHEMBL3044921, “Synthesis, characterization, and SAR studies of new (1H-indol-3-yl)alkyl-3-(1H-indol-3-yl)propanamide derivatives as possible antimicrobial and antitubercular agents” (2013).
In brackets after ≈: the same amount, converted by molar mass.

Columns and labels:
Talaromyces marneffei [1] = experiment: Antifungal activity against Talaromyces marneffei assessed as growth inhibition at […] to […] ug/ml after 3 to 4 days by agar well diffusion method; format: functional
Aspergillus fumigatus [2] = experiment: Antifungal activity against Aspergillus fumigatus NCIM 902 assessed as growth inhibition at […] to […] ug/ml after 3 to 4 days by agar well diffusion method; format: functional
Aspergillus flavus [3] = experiment: Antifungal activity against Aspergillus flavus NCIM 524 assessed as growth inhibition at […] to […] ug/ml after 3 to 4 days by agar well diffusion method; format: functional
Candida albicans [4] = experiment: Antifungal activity against Candida albicans assessed as growth inhibition after 3 to 4 days by serial plate dilution method; format: functional
[5] = system: Trichophyton mentagrophytes; experiment: Antifungal activity against Trichophyton mentagrophytes assessed as growth inhibition after 3 to 4 days by serial plate dilution method; format: functional
Talaromyces marneffei [6] = experiment: Antifungal activity against Talaromyces marneffei assessed as growth inhibition after 3 to 4 days by serial plate dilution method; format: functional
Aspergillus fumigatus [7] = experiment: Antifungal activity against Aspergillus fumigatus NCIM 902 assessed as growth inhibition after 3 to 4 days by serial plate dilution method; format: functional
Aspergillus flavus [8] = experiment: Antifungal activity against Aspergillus flavus NCIM 524 assessed as growth inhibition after 3 to 4 days by serial plate dilution method; format: functional
Streptococcus pyogenes [9] = format: functional
Description: Antibacterial activity against Streptococcus pyogenes assessed as growth inhibition at 1.56 to 25 ug/ml after 3 to 4 days by agar well diffusion method

Klebsiella pneumoniae [10] = format: functional
Description: Antibacterial activity against Klebsiella pneumoniae assessed as growth inhibition at 1.56 to 25 ug/ml after 3 to 4 days by agar well diffusion method

Pseudomonas aeruginosa [11] = format: functional, ATCC 27853
Description: Antibacterial activity against Pseudomonas aeruginosa ATCC 27853 assessed as growth inhibition at 1.56 to 25 ug/ml after 3 to 4 days by agar well diffusion method

Staphylococcus aureus [12] = format: functional, ATCC 25923
Description: Antibacterial activity against Staphylococcus aureus ATCC 25923 assessed as growth inhibition at 1.56 to 25 ug/ml after 3 to 4 days by agar well diffusion method

Streptococcus pyogenes [13] = experiment: Antibacterial activity against Streptococcus pyogenes assessed as growth inhibition after 16 to 18 hr by serial plate dilution method; format: functional
[14] = system: Mycolicibacterium smegmatis; experiment: Antitubercular activity against Mycobacterium smegmatis ATCC 19420 assessed as growth inhibition at 1 to 100 ug/mL after 7 days by resazurin reduction test; format: functional; settings: ATCC 19420, 168 h
[15] = system: Mycolicibacterium fortuitum; experiment: Antitubercular activity against Mycobacterium fortuitum ATCC 19542 assessed as growth inhibition at 1 to 100 ug/mL after 7 days by resazurin reduction test; format: functional; settings: ATCC 19542, 168 h
[16] = system: Mycobacterium tuberculosis; experiment: Antitubercular activity against Mycobacterium tuberculosis H37Rv ATCC 27294 assessed as growth inhibition at 1 to 100 ug/mL after 7 days by resazurin reduction test; format: functional; settings: for MIC: Mycobacterium tuberculosis, H37Rv ATCC 27294, 168 h
Candida albicans [17] = experiment: Antifungal activity against Candida albicans assessed as growth inhibition at […] to […] ug/ml after 3 to 4 days by agar well diffusion method; format: functional
[18] = system: Trichophyton mentagrophytes; experiment: Antifungal activity against Trichophyton mentagrophytes assessed as growth inhibition at […] to […] ug/ml after 3 to 4 days by agar well diffusion method; format: functional
Klebsiella pneumoniae [19] = experiment: Antibacterial activity against Klebsiella pneumoniae assessed as growth inhibition after 16 to 18 hr by serial plate dilution method; format: functional
Pseudomonas aeruginosa [20] = experiment: Antibacterial activity against Pseudomonas aeruginosa ATCC 27853 assessed as growth inhibition after 16 to 18 hr by serial plate dilution method; format: functional
Escherichia coli [21] = experiment: Antibacterial activity against Escherichia coli […] assessed as growth inhibition after 16 to 18 hr by serial plate dilution method; format: functional
Staphylococcus aureus [22] = experiment: Antibacterial activity against Staphylococcus aureus ATCC 25923 assessed as growth inhibition after 16 to 18 hr by serial plate dilution method; format: functional
Escherichia coli [23] = format: functional, ATCC 24922
Description: Antibacterial activity against Escherichia coli ATCC 24922 assessed as growth inhibition at 1.56 to 25 ug/ml after 3 to 4 days by agar well diffusion method

[24] = system: Mycobacterium tuberculosis; experiment: Antitubercular activity against Mycobacterium tuberculosis H37Rv ATCC 27294 assessed as growth inhibition at 0.3125 to 5 ug/mL after 7 days by resazurin reduction test; format: functional; settings: H37Rv ATCC 27294, 168 h

SMILES	diameter of the inhibition zone (DIZ) (Talaromyces marneffei [1]) [mm]	diameter of the inhibition zone (DIZ) (Aspergillus fumigatus [2]) [mm]	diameter of the inhibition zone (DIZ) (Aspergillus flavus [3]) [mm]	MIC (Candida albicans [4]) [µg/mL]	MIC [5] [µg/mL]	MIC (Talaromyces marneffei [6]) [µg/mL]	MIC (Aspergillus fumigatus [7]) [µg/mL]	MIC (Aspergillus flavus [8]) [µg/mL]	diameter of the inhibition zone (DIZ) (Streptococcus pyogenes [9]) [mm]	diameter of the inhibition zone (DIZ) (Klebsiella pneumoniae [10]) [mm]	diameter of the inhibition zone (DIZ) (Pseudomonas aeruginosa [11]) [mm]	diameter of the inhibition zone (DIZ) (Staphylococcus aureus [12]) [mm]	MIC (Streptococcus pyogenes [13]) [µg/mL]	MIC [14] [µg/mL]	MIC [15] [µg/mL]	growth inhibition (GI) [16] [%]	MIC [16] [µg/mL]	diameter of the inhibition zone (DIZ) (Candida albicans [17]) [mm]	diameter of the inhibition zone (DIZ) [18] [mm]	MIC (Klebsiella pneumoniae [19]) [µg/mL]	other results
O=C(CCc1c[nH]c2ccc(Cl)cc12)NCCCc1c[nH]c2ccc(Cl)cc12	16	16	16	6.25 (≈ 15.1 µM)	6.25 (≈ 15.1 µM)	6.25 (≈ 15.1 µM)	6.25 (≈ 15.1 µM)	6.25 (≈ 15.1 µM)	16	<10	<10	<10	6.25 (≈ 15.1 µM)	> 100	> 100	0	> 100	16	16	25 (≈ 60.3 µM)	MIC (Pseudomonas aeruginosa [20]): 25 µg/mL (≈ 60.3 µM); MIC (Escherichia coli [21]): 25 µg/mL (≈ 60.3 µM); MIC (Staphylococcus aureus [22]): 25 µg/mL (≈ 60.3 µM); diameter of the inhibition zone (DIZ) (Escherichia coli [23]): <10 mm
O=C(CCc1c[nH]c2ccc(Cl)cc12)NCCCc1c[nH]c2ccc(OC(F)(F)F)cc12	<10	<10	<10	25 (≈ 53.9 µM)	25 (≈ 53.9 µM)	25 (≈ 53.9 µM)	25 (≈ 53.9 µM)	25 (≈ 53.9 µM)	11	16	16	16	12.5 (≈ 26.9 µM)	> 100	> 100	0	> 100	<10	<10	6.25 (≈ 13.5 µM)	MIC (Pseudomonas aeruginosa [20]): 6.25 µg/mL (≈ 13.5 µM); MIC (Escherichia coli [21]): 6.25 µg/mL (≈ 13.5 µM); MIC (Staphylococcus aureus [22]): 6.25 µg/mL (≈ 13.5 µM); diameter of the inhibition zone (DIZ) (Escherichia coli [23]): 16 mm
Cc1c(CCCNC(=O)CCc2cn(C)c3ccc(Cl)cc23)c2cc(OC(F)(F)F)ccc2n1C	16	11	16	25 (≈ 49.4 µM)	12.5 (≈ 24.7 µM)	6.25 (≈ 12.4 µM)	12.5 (≈ 24.7 µM)	6.25 (≈ 12.4 µM)	<10	11	<10	11	25 (≈ 49.4 µM)	> 100	> 100	<90	10 (≈ 19.8 µM)	<10	11	12.5 (≈ 24.7 µM)	MIC [24]: 1.25 µg/mL (≈ 2.47 µM); MIC (Pseudomonas aeruginosa [20]): 25 µg/mL (≈ 49.4 µM); MIC (Escherichia coli [21]): 12.5 µg/mL (≈ 24.7 µM); MIC (Staphylococcus aureus [22]): 12.5 µg/mL (≈ 24.7 µM); diameter of the inhibition zone (DIZ) (Escherichia coli [23]): 11 mm
Cn1cc(CCCNC(=O)CCc2c[nH]c3ccc(Cl)cc23)c2cc(Cl)ccc21	<10	16	<10	25 (≈ 58.4 µM)	6.25 (≈ 14.6 µM)	25 (≈ 58.4 µM)	6.25 (≈ 14.6 µM)	25 (≈ 58.4 µM)	<10	11	11	<10	25 (≈ 58.4 µM)	> 100	> 100	0	> 100	<10	16	12.5 (≈ 29.2 µM)	MIC (Pseudomonas aeruginosa [20]): 12.5 µg/mL (≈ 29.2 µM); MIC (Escherichia coli [21]): 12.5 µg/mL (≈ 29.2 µM); MIC (Staphylococcus aureus [22]): 25 µg/mL (≈ 58.4 µM); diameter of the inhibition zone (DIZ) (Escherichia coli [23]): 11 mm
Cc1c(CNC(=O)CCc2c[nH]c3ccc(Cl)cc23)c2cc(OC(F)(F)F)ccc2n1C	11	11	11	6.25 (≈ 13.5 µM)	12.5 (≈ 26.9 µM)	12.5 (≈ 26.9 µM)	12.5 (≈ 26.9 µM)	12.5 (≈ 26.9 µM)	<10	<10	16	16	25 (≈ 53.9 µM)	10 (≈ 21.6 µM)	> 100	<90	> 100	16	11	25 (≈ 53.9 µM)	MIC [24]: 5 µg/mL (≈ 10.8 µM); MIC (Pseudomonas aeruginosa [20]): 6.25 µg/mL (≈ 13.5 µM); MIC (Escherichia coli [21]): 12.5 µg/mL (≈ 26.9 µM); MIC (Staphylococcus aureus [22]): 6.25 µg/mL (≈ 13.5 µM); diameter of the inhibition zone (DIZ) (Escherichia coli [23]): 11 mm
Cc1c(CNC(=O)CCc2cn(C)c3ccc(Cl)cc23)c2cc(OC(F)(F)F)ccc2n1C	<10	16	<10	12.5 (≈ 26.2 µM)	6.25 (≈ 13.1 µM)	25 (≈ 52.3 µM)	6.25 (≈ 13.1 µM)	25 (≈ 52.3 µM)	<10	11	<10	11	25 (≈ 52.3 µM)	10 (≈ 20.9 µM)	> 100	<90	> 100	11	16	12.5 (≈ 26.2 µM)	MIC [24]: 5 µg/mL (≈ 10.5 µM); MIC (Pseudomonas aeruginosa [20]): 25 µg/mL (≈ 52.3 µM); MIC (Escherichia coli [21]): 12.5 µg/mL (≈ 26.2 µM); MIC (Staphylococcus aureus [22]): 12.5 µg/mL (≈ 26.2 µM); diameter of the inhibition zone (DIZ) (Escherichia coli [23]): 11 mm
Cc1cc(C2CCCCC2)n(O)c(=O)c1.NCCO [CICLOPIROX OLAMINE]	20	25	25	6.25	6.25	6.25	6.25	6.25	–	–	–	–	–	–	–	–	–	20	27	–	–
O=C(O)c1cn(C2CC2)c2cc(N3CCNCC3)c(F)cc2c1=O [CIPROFLOXACIN]	–	–	–	–	–	–	–	–	23	21	16	30	6.25 (≈ 18.9 µM)	–	–	–	–	–	–	1.56 (≈ 4.71 µM)	–
